Source: patent US6682892B2, “Method for treating herpes viruses” (priority 2000, dated 2004)

Tests used:
HSV-1 DJL-M1 (V823A) = test: Plaque reduction assay, 4-oxo-DHQ resistant HSV-1 DJL-M1; type: cell-based; conditions: Table 2, mutant V823A
Protocol: (§1) Antiviral activity of compounds against herpesviruses such as HSV-1, HSV-2, or HCMV can be measured using plaque reduction assays. 0.1 ml of media containing approximately 50 PFU of virus is added to each well of a 24-well cell culture dish containing a confluent monolayer of cells (Vero cells for HSV-1 and HSV-2, HFF cells for HCMV). Compounds are dissolved in 100% DMSO and diluted in 100% DMSO as 200× stocks of the desired final drug concentration. Typically 5-6 two-fold dilutions are prepared for each compound. Dilutions of compounds are then added to media containing 0.8% CMC resulting in a final 1× drug concentration. After the virus-infected cells have incubated for 1 h at 37° C., the virus innoculum is removed and 1 ml of media containing 0.8% CMC and the various concentrations of compound is added to each well of the dish. The dish is incubated at 37° C. for approximately 2-3 days (HSV-1 and HSV-2) or 6-9 days (HCMV) to allow sufficient growth of virus to form plaques in the cell monolayer. Plaques can be observed and counted microscopically or by staining the cells with 0.1% crystal violet in 20% ethanol. […] The IC50 values are calculated by plotting the per cent inhibition vs. concentration of compound using EXCEL software for linear regression. […]

HSV-1 F = test: Plaque reduction assay, HSV-1 F; type: cell-based; conditions: Table 1, plaque reduction, Vero cells
Protocol: (§2) Antiviral activity of compounds against herpesviruses such as HSV-1, HSV-2, or HCMV can be measured using plaque reduction assays. 0.1 ml of media containing approximately 50 PFU of virus is added to each well of a 24-well cell culture dish containing a confluent monolayer of cells (Vero cells for HSV-1 and HSV-2, HFF cells for HCMV). Compounds are dissolved in 100% DMSO and diluted in 100% DMSO as 200× stocks of the desired final drug concentration. Typically 5-6 two-fold dilutions are prepared for each compound. Dilutions of compounds are then added to media containing 0.8% CMC resulting in a final 1× drug concentration. After the virus-infected cells have incubated for 1 h at 37° C., the virus innoculum is removed and 1 ml of media containing 0.8% CMC and the various concentrations of compound is added to each well of the dish. The dish is incubated at 37° C. for approximately 2-3 days (HSV-1 and HSV-2) or 6-9 days (HCMV) to allow sufficient growth of virus to form plaques in the cell monolayer. Plaques can be observed and counted microscopically or by staining the cells with 0.1% crystal violet in 20% ethanol. […] Antiviral activity of a compound is expressed as the concentration of compound predicted to reduce the number of plaques in a well by 50% (IC50). The IC50 values are calculated by plotting the per cent inhibition vs. concentration of compound using EXCEL software for linear regression.
(§3) A panel of viruses consisting of four strains of HSV-1 (KOS, F, DJL, Patton) and three strains of HSV-2 (MS, 35D, 186) are tested in a plaque reduction assay against four different 4-oxo-DHQ compounds (#1, 2, 4, 5 as shown in FIG. 1), and one 4-oxo-DHTP compound (#3 as shown in FIG. 1) and against Acyclovir. The six drugs inhibited replication of the seven virus strains with IC50 values ranging from 2-10 μM (Table 1). In order to select for 4-oxo-DHQ resistant mutants, HSV-1 strains KOS, F, and DJL along with HSV-2 strains 186 and MS are serially passaged in the presence of 20 uM compound 1. Following the seventh passage, 4-oxo-DHQ resistant virus from each strain are plaque purified three times and high-titer stocks are made.

HSV-1 F-M1 (V823A) = test: Plaque reduction assay, 4-oxo-DHQ resistant HSV-1 F-M1; type: cell-based; conditions: Table 2, mutant V823A
Protocol: as §1

HSV-1 DJL = test: Plaque reduction assay, HSV-1 DJL; type: cell-based; conditions: Table 1, plaque reduction, Vero cells
Protocol: as §2, §3

HSV-2 MS = test: Plaque reduction assay, HSV-2 MS; type: cell-based; conditions: Table 1, plaque reduction, Vero cells; read-out: IC50 (uM), HSV-2 MS
Protocol: as §2, §3

HSV-2 186-M1 (V828A) = test: Plaque reduction assay, 4-oxo-DHQ resistant HSV-2 186-M1; type: cell-based; conditions: Table 2, mutant V828A
Protocol: as §1

HCMV (wild) polymerase = HCMV (wild) polymerase (Human cytomegalovirus, UniProt P08546); test: In vitro polymerase assay, wild HCMV polymerase; type: biochemical; conditions: Table 3
Protocol: In order to select for a 4-oxo-DHQ HCMV resistant mutant, virus (strain AD169) is serially passaged in the presence of 20 uM a 4-oxo-DHQ. […] In order to determine if both valines need to be changed in order to confer resistance to the 4-oxo-DHQ's, in vitro polymerase assays are done using mutant HCMV polymerases containing either V823A or V823A plus V824L (Table 3).

HSV-2 MS-M1 (V826A) = test: Plaque reduction assay, 4-oxo-DHQ resistant HSV-2 MS-M1; type: cell-based; conditions: Table 2, mutant V826A; read-out: IC50 (uM), HSV-2 MS-M1
Protocol: as §2
Vero cells are plated out at a density of 3.5×10^5 cells per well in a six well tissue culture plate. Cells are infected with HSV-1 KOS at a multiplicity of infection (moi) of 0.1 pfu/cell and 1 h post infection the cells are overlayed with 3 ml media containing 20 uM of a 4-oxo-DHQ. Cultures are incubated for 20 h at 37° C., freeze/thawed to release cell-associated virus, and 0.1 ml of culture is used to infect a new monolayer of Vero cells (one passage). Serial passage is repeated seven times in the presence of 20 uM drug. Virus isolates are then plaque purified three times prior to preparation of stocks. 4-oxo-DHQ resistant HSV-1 and HSV-2 may also be selected by the marker transfer method described below using wild-type HSV DNA and the corresponding mutant HSV polymerase gene.
as §3

HSV-1 KOS = test: Plaque reduction assay, HSV-1 KOS; type: cell-based; conditions: Table 1, plaque reduction, Vero cells; read-out: IC50 (uM), HSV-1 KOS
Protocol: as §2, §3

[1] = test system: HCMV AD169-M1 (V823A, V824L); test: Plaque reduction assay, 4-oxo-DHQ resistant HCMV AD169-M1; type: cell-based; conditions: Table 4, plaque reduction, resistant mutant; read-out: HCMV AD169 - M1 IC50
Protocol: as §2
A plasmid containing the wild-type HCMV polymerase gene is modified to contain the V823A or V823A and V824L mutations using a site-directed mutagenesis Kit (Stratagene Corp.) and following the manufactures's protocol. HFF cells are plated into T25 tissue culture flasks to achieve 80% confluency at the time of the transfection. Wild type HCMV AD 169 DNA and plasmid DNA containing the mutant HCMV polymerase gene are mixed at a ratio of 1:2 (2 ug of viral DNA to 4 ug of plasmid DNA). DNA's are transfected using superfect transfection reagent according to methods recommended by the manufacturer (Quiagen Inc.). Cells are harvested five days posttransfection, freeze-thawed to release virus and half of the sample is used to infect HFF cell monolayers. Cells are overlayed with media containing 20 uM 4-oxo-DHQ compound 2 (see FIG. 1). Serial passage is repeated seven times in the presence of 20 uM compound 2 and virus isolates are then plaque purified three times prior to preparation of viral stock.
In order to isolate an HCMV resistant mutant marker rescue experiments are done. Plasmids containing the mutant polymerase genes are transfected into HFF cells along with wild type HCMV AD169 DNA. The resulting virus is then serially passaged in the presence of 20 uM compound 1 (see FIG. 1). A 4-oxo-DHQ resistant virus is isolated from marker rescue studies done with the HCMV polymerase gene containing mutations that result in the V823A, V824L amino acid changes, but not with the gene containing V823A change alone.

HCMV (wild) polymerase, sequence (P08546 whole entry): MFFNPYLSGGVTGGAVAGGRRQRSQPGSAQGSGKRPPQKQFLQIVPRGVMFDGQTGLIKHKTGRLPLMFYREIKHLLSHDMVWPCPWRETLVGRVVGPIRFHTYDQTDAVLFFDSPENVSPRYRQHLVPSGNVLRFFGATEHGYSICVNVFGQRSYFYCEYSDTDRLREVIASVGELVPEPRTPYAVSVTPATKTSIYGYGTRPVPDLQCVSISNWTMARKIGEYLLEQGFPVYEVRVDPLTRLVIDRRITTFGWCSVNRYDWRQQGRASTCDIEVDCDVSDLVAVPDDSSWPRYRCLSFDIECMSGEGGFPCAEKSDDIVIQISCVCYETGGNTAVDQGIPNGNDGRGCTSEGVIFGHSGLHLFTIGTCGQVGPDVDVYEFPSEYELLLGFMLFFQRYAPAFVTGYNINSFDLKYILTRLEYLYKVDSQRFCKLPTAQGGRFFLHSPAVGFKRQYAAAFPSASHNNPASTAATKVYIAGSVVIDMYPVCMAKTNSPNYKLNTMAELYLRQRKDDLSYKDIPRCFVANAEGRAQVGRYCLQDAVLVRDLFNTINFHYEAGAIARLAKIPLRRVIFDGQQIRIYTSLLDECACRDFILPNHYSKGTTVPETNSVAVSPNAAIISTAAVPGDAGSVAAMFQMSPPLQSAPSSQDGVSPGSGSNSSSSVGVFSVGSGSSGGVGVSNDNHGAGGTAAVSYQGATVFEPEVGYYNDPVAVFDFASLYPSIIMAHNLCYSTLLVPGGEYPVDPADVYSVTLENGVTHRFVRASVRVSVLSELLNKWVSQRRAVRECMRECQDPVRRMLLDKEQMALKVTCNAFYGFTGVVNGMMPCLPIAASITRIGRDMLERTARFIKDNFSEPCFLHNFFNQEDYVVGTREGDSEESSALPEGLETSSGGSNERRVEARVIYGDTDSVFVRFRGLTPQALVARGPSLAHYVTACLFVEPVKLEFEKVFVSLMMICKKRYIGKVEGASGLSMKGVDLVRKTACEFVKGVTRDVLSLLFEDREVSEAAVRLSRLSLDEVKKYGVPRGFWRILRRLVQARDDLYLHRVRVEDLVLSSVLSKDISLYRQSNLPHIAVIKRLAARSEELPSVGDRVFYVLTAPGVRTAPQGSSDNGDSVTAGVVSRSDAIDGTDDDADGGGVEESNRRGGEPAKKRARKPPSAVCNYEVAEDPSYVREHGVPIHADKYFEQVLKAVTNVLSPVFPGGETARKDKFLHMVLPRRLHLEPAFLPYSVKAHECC

Work on `Cn1cc(C(=O)NCc2ccc(Cl)cc2)c(=O)c2cc(/C=C\CO)cc(F)c21` [Compound 1] yielded an IC50 (HSV-1 DJL-M1 (V823A)) greater than 20 µM, an IC50 (HSV-1 F) of 2.5 µM and an IC50 (HSV-1 F-M1 (V823A)) greater than 20 µM. It also gave an IC50 (HSV-1 DJL) of 2.5 µM, an IC50 (HSV-2 MS) of 2 µM and an IC50 (HSV-2 186-M1 (V828A)) greater than 20 µM. For the same molecule, the IC50 (HCMV (wild) polymerase) was 4.6 µM, the IC50 (HSV-2 MS-M1 (V826A)) was greater than 20 µM and the IC50 (HSV-1 KOS) was 2 µM. It also gave an IC50 [1] of 4.7 µM.
